“And” between values parts separate entries of the source, which are not always exact repeats. Identical values can stand only once. Like-named read-outs stand apart in the source and are kept apart here. No end group written: not given here.
Assays:
[1] = tested on: pig aorta endothelial cells (PAECs), human serum; assay: Chromium release assay (PAEC assay); assay type: cell-based
Description: Culture plates (Falcon 24-well plates, Becton Dickinson, Lincoln Park, N.J.) were coated by addition of 0.5 ml/well of 2% gelatin (Type B, from bovine skin, Sigma Chemical Co.) diluted 1:10 in Hanks buffered salt solution (Gibco BRL, Grand Island, N.Y.), followed by incubation for 15 min at room temperature. The gelatin solution was removed, and 125×10^3 pig aorta endothelial cells (PAECs, Cell Systems, Kirkland, Wash.) in 2 ml of cell culture medium (CCM, Dulbecco's modified Eagle's medium (DMEM) with high glucose (Gibco BRL) containing 20% defined fetal bovine serum (FBS, HyClone Laboratories, Logan, Utah) that had been heat inactived for 30 min at 56° C., 1%(v/v) L-glutamine (200 mM, Gibco BRL) and penicillin G sodium (10,000 units/ml)/streptomycin sulfate (10,000 μg/ml in 0.85% saline, Gibco BRL)] were added per well. The plate was centrifuged in a model GS-6R Beckman table top centrifuge at 20×g for 2 min with the brake off to settle the cells onto the gelatin in a even monolayer, after which the plate was incubated at 37° C. in 5% CO2 -95% air. After 4 hours, cell attachment had occurred, and the CCM was removed and replaced with 2 ml of fresh CCM. In 2-4 days the PAECs had grown to 80-100% confluence and were used in the complement mediated chromium release assay.
The PAECs were washed 3 times with 1 ml of serum free medium (SFM), leaving the SFM on the cells for 5 min each time. Chromium radioisotope (^51 Cr, NaCrO4, Amersham Corp., Arlington Heights, Ill.) was diluted in SFM to give 40 μCi/ml, and 100 μl were added to each well of the PAEC culture plate. The plate was incubated for 2 hours at 37° C. in 5% CO2 -95% air. The wells were washed three times with 1 ml of SFM. Then, 1 ml of PBS was added to each well, and the plate was incubated at 37° C. for 30 min to help reduce ^51 Cr background.
The various peptide inhibitors (diluted in SFM) were added (300 μl/well) and incubated with the PAECs at 37° C. for 30 min. Undiluted human serum (HS, 100 μl) or 100 μl of heat inactivated human serum (HIHS) was added to each well, and the plate was incubated at 37° C. for 1 hour. Supernatant (200 μl) was removed from each well and added to 200 μl of scintillation cocktail (OptiPhase `Supermix`, Wallac Inc., Turku, Finland) previously added to each well of a 24-well polyethylene terephtalate reading plate (Wallac Inc.), and the plate was sealed with an acetate plate sealer (Dynatech Laboratories, Chantilly, Va.). The reading plate was placed on a shaker for 5 min to obtain a homogeneous mixture. Radioactivity (CPMs) of the wells was counted for 2 min using the 1450 MicroBeta PLUS plate reader (Wallac Inc.).
Total counts of ^51 Cr were determined from 200 μl aliquots taken from the wells to which 100 μl of 5% Triton X-100 (Sigma Chemical Co.) had been added. Total complement mediated lysis was determined from wells treated with HS alone, and background counts were determined from wells treated with HI-HS alone or with peptide alone (no HS). The average background was subtracted from all well counts, and the percent inhibition calculated as total lysis minus lysis with inhibitor/total lysis multiplied by 100. All experimental points were obtained in triplicate, and the data were analyzed in the same manner as the data from the SRBC assays.

[2] = tested on: sensitized sheep erythrocytes (SRBCs), human serum as complement; assay: Sheep red blood cell lysis assay (SRBC assay); assay type: cell-based
[3] = target: binding of rabbit Ig-HRP to solid phase C1q; assay: Inhibition of binding of Ig-HRP to solid phase C1q
Description: C1q (gift of Dr. Lawrence Potempa, Immtech International Inc., Evanston, Ill.) diluted to 10 μg/ml in coating buffer was placed in the wells of a microtiter plate (100 μl/well) and incubated for 2 hours at 25° C. The uncoated surfaces of the wells were blocked by adding 340 μl PBSC and incubating the plate for 1 hour at 25° C., followed by washing 3 times with PBSC. Dilutions of Ig-HRP in C1q buffer (50 mM Tris, pH 7.2, 27 mM NaCl, 1 mM CaCl2, 0.01% (wt/v) Thimerosal) were incubated in the wells (100 μl/well) for 1 hour at 25° C. followed by washing 3 times with C1q buffer. OPD substrate buffer was then added (100 μl/well), and the colored product was measured at 414 nm in a Titertek Multiskan plate reader.
C1q was coated onto the surface of the wells of a microtiter plate as described in Part C. […] OPD substrate buffer (100 μl/well) was then added and the colored product measured at 414 nm in a Titertek Mutiskan plate reader.

[4] = tested on: binding of rabbit Ig-HRP by solid phase Protein A; assay: Inhibition of binding of Ig-HRP to solid phase Protein A
Description: Protein A (recombinant Protein A from Repligen, Cambridge, Mass.) diluted to 1 μg/ml in coating buffer (0.1M NaHCO3, pH 9.0) was incubated in the wells of a microtiter plate (100 μl per well) for 2 hours at 37° C. Uncoated surfaces of the wells were blocked by adding 340 μl PBSC (9 mM Na2 HPO4, 1 mM NaH2 PO4, pH 7.2, 154 mM NaCl, 1 mg/ml casein or ovalbumin, and 0.01% thimerosal), incubating the plate 1 hour at 37° C., and then washing the wells 3 times with PBSCT (PBSC plus 0.1% Tween 20 (polyoxyethylene sorbitan monolaurate)). Dilutions of rabbit immunoglobulin labeled with horseradish peroxidase (Ig-HRP) (Zymed Laboratories, Inc., South San Francisco, Calif.) in PBS (9 mM Na2 HPO4, 1 mM NaH2 PO4, pH 7.2, 154 mM NaCl) were incubated in the wells (100 μl per well) for 2 hours at 37° C. followed by washing 3 times with PBS. OPD substrate buffer (0.8 mg/ml o-phenylenediamine, 0.1M Na2 HPO4, 0.05M sodium citrate, pH 5.5, plus 0.15% (v/v) H2 O2) was then added to the wells (100 μl/well), and the resultant colored product was measured with a Titertek Multiskan plate reader using a 414 nm filter.
OPD substrate buffer was then added (100 μl/well), and the resulting colored product was measured at 414 nm in a Titertek Multiskan plate reader.
8. […] Then the inhibition assay using solid phase Protein A was performed as described above.

HRP enzyme = target: T1, HRP enzyme (Armoracia rusticana, UniProt P00433); assay: Control: effect of CBP2 on the HRP enzyme; assay type: biochemical, horseradish; details: 50 μM CBP2, 3 hours 37° C.
T1 construct: purchased Zymed Laboratories, Inc
Description: 1. […] Aliquots of 100 μl were placed in the wells of a microtiter plate and an equal volume of OPD substrate buffer was added, and the colored product was measured at 414 nm.

[5] = tested on: guinea pig hearts transplanted into C6 deficient PVG rats; assay: Heterotopic heart transplantation; assay type: in vivo, rat; details: pump 2ML4 (15.6 mg CBP2) plus i.v. 15.6 mg on day 2; 2 rats, individual values
Description: Four to six week old guinea pigs (GP, Harlan, Indianapolis, Ind.) hearts were transplanted into C6 deficient PVG rats (B&K, Kent, Wash.) by a modification of the technique described by Ono and Lindsay (Journal of Thoracic Cardiovascular Surgery, 57, 225, 1969). Seven of the rats receiving GP hearts were not treated, 8 additional rats receiving GP hearts were treated with a single pre-transplant intravenous injection of a 3 ml cocktail of CBP3 [SEQ ID NO:4] (0.67 mg/ml) and 1.03 mg/ml of AEK [SEQ ID NO:5]. CBP3, 15.4 mg, was dissolved in 1.1 ml of 60% DMF in H2 O and AEK, 10 mg, was dissolved on 0.5 ml H2 O. Two hundred μl of CBP3 and 100 μl of AEK were added to 2.7 ml of 1:5 diluted (in PBS) heat-inactivated PVG C6 deficient rat serum. The GP transplanted hearts were monitored several times daily, and the times noted when the hearts stopped beating.
Two additional PVG C6 deficient rats were transplanted with GP hearts.
In a separate experiment, two C6 deficient PVG rats were transplanted with GP hearts.

[6] = tested on: human C1q binding to PAECs; assay: Immunohistochemical staining of PAECs for binding of human C1q; assay type: cell-based; details: CBP2 1.2 mM
Description: PAECs (1×10^4) in 1 ml of CCM were added to each well of a 4-chamber culture slide (Labtek, Nunc, Naperville, Ill.), and the cells were grown to confluence (incubation for 3 days at 37° C. in 5% CO2 -95% air). The medium was removed, and the slide was washed with PBS (10 mM phosphate buffered saline, pH 7.4, containing 120 mM NaCl and 2.7 mM KCl, Sigma Chemical Co.) in a swirling motion for 5 sec. This was repeated with distilled water and 100% ethanol. The slide was tapped dry and immersed in pre-chilled (-20° C.) acetone for 20 min and then air dried.
HI-HS was added to the wells, and the slide was incubated for 15 min at 37° C. to allow human IgG and IgM antibodies to bind to PAEC epitopes. The HI-HS was removed, and the wells were washed 3 times with PBS. C1q or C1q plus peptide in PBS containing 1% bovine serum albumin (BSA, Sigma Chemical Co.) (PBSA) was then added, and the slide was incubated for 15 min at room temperature. The solutions were removed, and the wells were washed 3 times with PBS. Blocking serum was added [10% donkey serum (The Binding Site, Birmingham, England) in PBS], and the slide was incubated for 20 minutes at room temperature. […] Staining of the cells was analyzed on a Zeiss Axioskop (Carl Zeiss, Oberkochen, Germany) with a wide band FITC filter.

[7] = tested on: PAP binding to solid phase CBP2; assay: Elution or inhibition of PAP binding to the CBP2 column by solution peptide; design: species or system rabbit; details: for PAP binding to solid phase CBP2 after pre-incubation with peptide: 0.1 mM peptide, 1 hour 25° C., PAP 20 μg/ml; for elution of bound PAP from CBP2 column by peptide wash: 3 ml of 336.2 μg/ml CBP2 or equimolar LHRH
Description: An additional 6 ml of C1q buffer was used to wash the column followed by 3 ml of 2% (v/v) acetic acid and then with 6 ml of C1q buffer to completely wash the column.
The sample was then eluted with 21 ml C1q buffer followed by 3 ml of 2% (v/v) acetic acid and then 6 ml C1q buffer. The column fractions were assayed for the presence of peroxidase as described above in Part A, and the concentration of PAP was calculated from the standard curve data.
This was not the case, however, since similar concentrations were used for column elution as for the pre-incubation studies. […] Thus, the effect of aggregates, if they formed, was of little significance.

[8] = highest concentration (1 mM) tested
[9] = same concentration range as CBP2

PAP binding to solid phase CBP2, sequence (P01870 whole entry): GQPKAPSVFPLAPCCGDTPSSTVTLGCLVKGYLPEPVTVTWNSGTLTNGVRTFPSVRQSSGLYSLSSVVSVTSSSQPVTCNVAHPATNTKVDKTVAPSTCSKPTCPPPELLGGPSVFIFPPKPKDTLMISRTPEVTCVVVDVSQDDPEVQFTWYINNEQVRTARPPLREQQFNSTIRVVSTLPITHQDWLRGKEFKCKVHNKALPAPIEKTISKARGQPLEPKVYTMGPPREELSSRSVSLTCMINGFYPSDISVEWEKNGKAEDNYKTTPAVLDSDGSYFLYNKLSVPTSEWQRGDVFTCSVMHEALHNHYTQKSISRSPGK
T1 sequence (P00433 31-338 limits assumed): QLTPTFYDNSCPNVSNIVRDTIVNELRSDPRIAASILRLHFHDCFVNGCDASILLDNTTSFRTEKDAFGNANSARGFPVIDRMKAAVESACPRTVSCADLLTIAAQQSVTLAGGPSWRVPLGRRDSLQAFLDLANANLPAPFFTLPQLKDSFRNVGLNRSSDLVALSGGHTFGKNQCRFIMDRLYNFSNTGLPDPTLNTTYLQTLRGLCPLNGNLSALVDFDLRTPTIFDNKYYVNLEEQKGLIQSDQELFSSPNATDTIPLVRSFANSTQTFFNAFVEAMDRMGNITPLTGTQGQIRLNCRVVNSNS
T1 sequence (P01870 whole entry partner): as the sequence (P01870 whole entry) above
T1 sequence (P01840 whole entry partner): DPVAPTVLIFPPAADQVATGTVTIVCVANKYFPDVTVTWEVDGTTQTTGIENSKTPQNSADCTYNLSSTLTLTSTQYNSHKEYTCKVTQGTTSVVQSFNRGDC

Question: Which results are given for “Ac-AEAKAKA-NH2 [AEK, Ac-Ala Glu Ala Lys Ala Lys Ala-NH2]”?
Answer: inhibitory activity in the PAEC assay [1, 8]: no inhibitory activity; inhibitory activity in the SRBC assay [2, 8]: no inhibitory activity

Question: “C1q: complement component C1q, gift of Immtech International, liquid phase positive control” was tested. Which IC50 ([3]; read-out: 50% inhibition concentration for liquid phase C1q inhibiting solid phase C1q) did it give?
Answer: ~0.01 µM

Question: Which “inhibition of Protein A binding of Ig-HRP (maximum)” value [4] does the source give for “LEQGENVFLQATLLC [CBP2, C1q B chain residues 189-200 plus Leu Leu Cys at the carboxyl terminus]” here?
Answer: ~100%

Question: What about the “effect of DTT on the inhibitory activity of CBP2” value ([4]; 4 mg/ml DTT, 2 hours 37° C., solid phase Protein A) of the same substance?
Answer: no effect

Question: And the IC50 ([4]; Ig-HRP 1:5000 in PBS, preincubated 1 hour 37° C., read-out: concentration at 50% inhibition of Protein A binding of Ig-HRP)?
Answer: ~1000 nM

Question: And the IC50 ([3]; Ig-HRP 1:100 in C1q buffer, 25° C., read-out: 50% inhibition concentration, Ig-HRP binding to solid phase C1q)?
Answer: ~10 µM

Question: And the “effect on the HRP enzyme” value (HRP enzyme)?
Answer: did not inhibit the HRP enzyme

Question: And the “% Inhibition PAEC Assay +/- S.D.” value ([1]; 31 μM)?
Answer: 2.0 +/- 3.1%

Question: What about the “% Inhibition PAEC Assay +/- S.D.” value ([1]; 62.5 μM) of the same substance?
Answer: 10.6% and 10.6 +/- 13.5%

Question: What about the “% Inhibition PAEC Assay +/- S.D.” value ([1]; 125 μM) of the same substance?
Answer: 25.0 +/- 14.8%

Question: And the “% Inhibition PAEC Assay +/- S.D.” value ([1]; 250 μM)?
Answer: 64.4 +/- 8.4%

Question: What about the “% Inhibition PAEC Assay +/- S.D.” value ([1]; 500 μM) of the same substance?
Answer: 87.2% and 87.2 +/- 3.8%

Question: And the “% Inhibition SRBC Assay +/- S.D.” value ([2]; 31 μM)?
Answer: 0.0 +/- 0.0%

Question: What about the “% Inhibition SRBC Assay +/- S.D.” value ([2]; 62.5 μM) of the same substance?
Answer: 13.5% and 13.5 +/- 9.3%

Question: And the “% Inhibition SRBC Assay +/- S.D.” value ([2]; 125 μM)?
Answer: 45.2 +/- 30.8%

Question: And the “% Inhibition SRBC Assay +/- S.D.” value ([2]; 250 μM)?
Answer: 78.0 +/- 18.3%

Question: What about the “% Inhibition SRBC Assay +/- S.D.” value ([2]; 1000 μM) of the same substance?
Answer: 97.4 +/- 2.7%

Question: What about the “Graft Survival” value [5] of the same substance?
Answer: 4 days and 5 days

Question: What about the “C1q binding to PAECs (immunohistochemical staining)” value [6] of the same substance?
Answer: only trace binding of C1q

Question: What about the “PAP binding to solid phase CBP2 after pre-incubation with peptide” value [7] of the same substance?
Answer: dramatic loss of PAP binding

Question: What about the “elution of bound PAP from CBP2 column by peptide wash” value [7] of the same substance?
Answer: small but significant PAP peak which was eluted from the column

Question: What about the “inhibition of PAP binding to CBP2 column” value ([7]; PAP pre-incubated with 156 μg/ml CBP2) of the same substance?
Answer: approximately 40%

Question: Which IC50 ([4]; Ig-HRP binding to solid phase Protein A, read-out: 50% inhibition concentration for solution phase Protein A) does the source give for “Protein A: recombinant Protein A from Repligen, positive control in solution phase [reference compound]” here?
Answer: 1 nM

Question: How did the “Protein A inhibitory activity” value [4, 9] turn out when “luteinizing hormone releasing hormone [LHRH, reference compound]” was run?
Answer: no Protein A or C1q inhibitory activity

Question: What about the C1q inhibitory activity [3, 9] of the same substance?
Answer: no Protein A or C1q inhibitory activity

Question: What about the “PAP binding to solid phase CBP2 after pre-incubation with peptide” value [7] of the same substance?
Answer: PAP binding to the column in the range normally observed

Question: What about the “elution of bound PAP from CBP2 column by peptide wash” value [7] of the same substance?
Answer: no significant elution of PAP

— patent US5932483A, “Synthetic peptide and its uses” (Northwestern University, priority 1996, dated 1999)
